According to the supplement of paper PMC11451515:

Test system: P12-Ichikawa
Experiment: cell viability relative to DMSO control; higher = less cytotoxic
Conditions: 48 h
Summary of the method: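 Library compounds in DMSO were pin-dosed in an 11-point threefold series (47 μM to 0.79 nM) onto leukemia cells in 1536-well plates (5 μl). Plates held 500 cells/well of NOMO1 or SEM or 1000 cells/well of P12-Ichikawa, each adapted for at least four passages in each medium. Luminescence was read with CellTiter-Glo One after 48 h at 37°C. Viability means the per-plate percentage relative to DMSO wells, using cell-free wells as background.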

[1] = HPLM + 10% dialyzed FBS, 0.000781 µM
[2] = HPLM + 10% dialyzed FBS, 0.00234 µM
[3] = HPLM + 10% dialyzed FBS, 0.00702 µM
[4] = HPLM + 10% dialyzed FBS, 0.0211 µM
[5] = HPLM + 10% dialyzed FBS, 0.0632 µM
[6] = HPLM + 10% dialyzed FBS, 0.19 µM
[7] = HPLM + 10% dialyzed FBS, 0.569 µM
[8] = HPLM + 10% dialyzed FBS, 1.71 µM
[9] = HPLM + 10% dialyzed FBS, 5.12 µM
[10] = HPLM + 10% dialyzed FBS, 15.4 µM
[11] = HPLM + 10% dialyzed FBS, 46.1 µM
[12] = RPMI 5 mM glucose + 10% FBS, 0.000781 µM
[13] = RPMI 5 mM glucose + 10% FBS, 0.00234 µM
[14] = RPMI 5 mM glucose + 10% FBS, 0.00702 µM
[15] = RPMI 5 mM glucose + 10% FBS, 0.0211 µM
[16] = RPMI 5 mM glucose + 10% FBS, 0.0632 µM
[17] = RPMI 5 mM glucose + 10% FBS, 0.19 µM
[18] = RPMI 5 mM glucose + 10% FBS, 0.569 µM
[19] = RPMI 5 mM glucose + 10% FBS, 1.71 µM
[20] = RPMI 5 mM glucose + 10% FBS, 5.12 µM
[21] = RPMI 5 mM glucose + 10% FBS, 15.4 µM
[22] = RPMI 5 mM glucose + 10% FBS, 46.1 µM
[23] = RPMI 5 mM glucose + 10% dialyzed FBS, 0.000781 µM
[24] = RPMI 5 mM glucose + 10% dialyzed FBS, 0.00234 µM
[25] = RPMI 5 mM glucose + 10% dialyzed FBS, 0.00702 µM
[26] = RPMI 5 mM glucose + 10% dialyzed FBS, 0.0211 µM
[27] = RPMI 5 mM glucose + 10% dialyzed FBS, 0.0632 µM
[28] = RPMI 5 mM glucose + 10% dialyzed FBS, 0.19 µM
[29] = RPMI 5 mM glucose + 10% dialyzed FBS, 0.569 µM
[30] = RPMI 5 mM glucose + 10% dialyzed FBS, 1.71 µM
[31] = RPMI 5 mM glucose + 10% dialyzed FBS, 5.12 µM
[32] = RPMI 5 mM glucose + 10% dialyzed FBS, 15.4 µM
[33] = RPMI 5 mM glucose + 10% dialyzed FBS, 46.1 µM

Row | SMILES | cell viability [1] [%] | cell viability [2] [%] | cell viability [3] [%] | cell viability [4] [%] | cell viability [5] [%] | cell viability [6] [%] | cell viability [7] [%] | cell viability [8] [%] | cell viability [9] [%] | cell viability [10] [%] | cell viability [11] [%] | cell viability [12] [%] | cell viability [13] [%] | cell viability [14] [%] | cell viability [15] [%] | cell viability [16] [%] | cell viability [17] [%] | cell viability [18] [%] | cell viability [19] [%] | cell viability [20] [%] | cell viability [21] [%] | cell viability [22] [%] | cell viability [23] [%] | cell viability [24] [%] | cell viability [25] [%] | cell viability [26] [%] | cell viability [27] [%] | cell viability [28] [%] | cell viability [29] [%] | cell viability [30] [%] | cell viability [31] [%] | cell viability [32] [%] | cell viability [33] [%]
1 | CC1=CC(=CC(=C1C\C2=N\CCN2)C)C(C)(C)C | 102 | 105 | 105 | 106 | 105 | 124 | 107 | 116 | 106 | 104 | 102 | 99.5 | 105 | 105 | 114 | 118 | 113 | 111 | 114 | 99.3 | 86.4 | 90.2 | 91 | 96.4 | 98.1 | 100 | 105 | 92.9 | 103 | 102 | 97.9 | 91.4 | 84.1
2 | CC(C)(O)CC(=O)NCCn1ccc2ncnc(Nc3ccc(Oc4cccc(C(F)(F)F)c4)c(Cl)c3)c21 | 120 | 115 | 116 | 112 | 111 | 109 | 108 | 102 | 87.2 | 69.5 | 60.7 | 110 | 107 | 121 | 114 | 121 | 105 | 107 | 111 | 93.3 | 75.6 | 52 | 104 | 113 | 117 | 109 | 115 | 113 | 110 | 106 | 95.8 | 69.1 | 47.4
3 | CNc1nc(Nc2cnn([C@H]3CCN(C4COC4)C[C@@H]3F)c2Cl)ncc1C(F)(F)F | 91 | 100 | 108 | 108 | 102 | 92.9 | 98.5 | 53.3 | 24.9 | 30 | 28 | 93.9 | 106 | 99.6 | 106 | 115 | 112 | 115 | 99.1 | 54 | 22.2 | 39.2 | 100 | 103 | 110 | 120 | 115 | 111 | 114 | 93.1 | 54.3 | 34.8 | 38.1
4 | NC[C@H]1O[C@H](O[C@@H]2[C@H](O)[C@@H](O[C@H]3O[C@H](CO)[C@@H](O)[C@H](N)[C@H]3O)[C@H](N)C[C@@H]2N)[C@H](O)[C@@H](O)[C@@H]1O | 126 | 124 | 124 | 107 | 120 | 121 | 117 | 121 | 112 | 104 | 107 |  |  |  |  |  |  |  |  |  |  |  |  |  |  |  |  |  |  |  |  |  | 
5 | CC(C(=O)O)c1ccc2c(c1)CC(=O)c1ccccc1S2 (stereo unspecified) | 104 | 108 | 107 | 110 | 118 | 106 | 115 | 101 | 111 | 37.5 | 25.1 | 99.3 | 117 | 101 | 104 | 116 | 115 | 118 | 109 | 106 | 24 | 18.8 | 102 | 101 | 101 | 99.2 | 99.5 | 107 | 104 | 109 | 104 | 31.7 | 21.2
6 | CNC(=O)c1ccc(Nc2cc(Nc3ccccc3[S+](=O)([O-])C(C)C)c3cc[nH]c3n2)nc1 | 98.8 | 104 | 107 | 100 | 110 | 111 | 113 | 89.8 | 12.5 | 10.6 | 22.3 | 108 | 108 | 105 | 115 | 105 | 113 | 98.1 | 66.7 | 14.7 | 12.6 | 19.2 | 109 | 105 | 111 | 105 | 116 | 118 | 107 | 83.5 | 26.7 | 28.2 | 29.6
